pIC50, pKi: −log10 of the molar value.

One assay concerns the target T1, intracellular ATR (Homo sapiens, UniProt Q13535).
T1 construct: endogenous in cells; host or cells: HT29
In words: Cellular ATR Inhibition Assay (H2AX phosphorylation, immunofluorescence microscopy). The note with it: HT29 cells, 2 mM hydroxyurea, percentage of phosphorylated H2AX Ser139-positive nuclei. The assay is classed as cell-based. The procedure:
Compounds were screened for their ability to inhibit intracellular ATR using an immunofluorescence microscopy assay to detect phosphorylation of the ATR substrate histone H2AX in hydroxyurea treated cells. HT29 cells were plated at 14,000 cells per well in 96-well black imaging plates (BD 353219) in McCoy's 5A media (Sigma M8403) supplemented with 10% foetal bovine serum (JRH Biosciences 12003), Penicillin/Streptomycin solution diluted 1:100 (Sigma P7539), and 2 mM L-glumtamine (Sigma G7513), and allowed to adhere overnight at 37° C. in 5% CO2. Compounds were then added to the cell media from a final concentration of 25 μM in 3-fold serial dilutions and the cells were incubated at 37° C. in 5% CO2. After 15 min, hydroxyurea (Sigma H8627) was added to a final concentration of 2 mM.
After 45 min of treatment with hydroxyurea, the cells were washed in PBS, fixed for 10 min in 4% formaldehyde diluted in PBS (Polysciences Inc 18814), washed in 0.2% Tween-20 in PBS (wash buffer), and permeabilised for 10 min in 0.5% Triton X-100 in PBS, all at room temperature. The cells were then washed once in wash buffer and blocked for 30 min at room temperature in 10% goat serum (Sigma G9023) diluted in wash buffer (block buffer). To detect H2AX phosphorylation levels, the cells were then incubated for 1 h at room temperature in primary antibody (mouse monoclonal anti-phosphorylated histone H2AX Ser139 antibody; Upstate 05-636) diluted 1:250 in block buffer. The cells were then washed five times in wash buffer before incubation for 1 h at room temperature in the dark in a mixture of secondary antibody (goat anti-mouse Alexa Fluor 488 conjugated antibody; Invitrogen A11029) and Hoechst stain (Invitrogen H3570); diluted 1:500 and 1:5000, respectively, in wash buffer. The cells were then washed five times in wash buffer and finally 100 ul PBS was added to each well before imaging.
Cells were imaged for Alexa Fluor 488 and Hoechst intensity using the BD Pathway 855 Bioimager and Attovision software (BD Biosciences, Version 1.6/855) to quantify phosphorylated H2AX Ser139 and DNA staining, respectively. The percentage of phosphorylated H2AX-positive nuclei in a montage of 9 images at 20× magnification was then calculated for each well using BD Image Data Explorer software (BD Biosciences Version 2.2.15). Phosphorylated H2AX-positive nuclei were defined as Hoechst-positive regions of interest containing Alexa Fluor 488 intensity at 1.75-fold the average Alexa Fluor 488 intensity in cells not treated with hydroxyurea. The percentage of H2AX positive nuclei was finally plotted against concentration for each compound and IC50s for intracellular ATR inhibition were determined using Prism software (GraphPad Prism version 3.0cx for Macintosh, GraphPad Software, San Diego Calif., USA).

The target in another assay is T2, full-length ATR (Homo sapiens, UniProt Q13535).
T2 construct: in the presence of 5 nM full-length ATR
T2 sequence (Q13535 whole entry): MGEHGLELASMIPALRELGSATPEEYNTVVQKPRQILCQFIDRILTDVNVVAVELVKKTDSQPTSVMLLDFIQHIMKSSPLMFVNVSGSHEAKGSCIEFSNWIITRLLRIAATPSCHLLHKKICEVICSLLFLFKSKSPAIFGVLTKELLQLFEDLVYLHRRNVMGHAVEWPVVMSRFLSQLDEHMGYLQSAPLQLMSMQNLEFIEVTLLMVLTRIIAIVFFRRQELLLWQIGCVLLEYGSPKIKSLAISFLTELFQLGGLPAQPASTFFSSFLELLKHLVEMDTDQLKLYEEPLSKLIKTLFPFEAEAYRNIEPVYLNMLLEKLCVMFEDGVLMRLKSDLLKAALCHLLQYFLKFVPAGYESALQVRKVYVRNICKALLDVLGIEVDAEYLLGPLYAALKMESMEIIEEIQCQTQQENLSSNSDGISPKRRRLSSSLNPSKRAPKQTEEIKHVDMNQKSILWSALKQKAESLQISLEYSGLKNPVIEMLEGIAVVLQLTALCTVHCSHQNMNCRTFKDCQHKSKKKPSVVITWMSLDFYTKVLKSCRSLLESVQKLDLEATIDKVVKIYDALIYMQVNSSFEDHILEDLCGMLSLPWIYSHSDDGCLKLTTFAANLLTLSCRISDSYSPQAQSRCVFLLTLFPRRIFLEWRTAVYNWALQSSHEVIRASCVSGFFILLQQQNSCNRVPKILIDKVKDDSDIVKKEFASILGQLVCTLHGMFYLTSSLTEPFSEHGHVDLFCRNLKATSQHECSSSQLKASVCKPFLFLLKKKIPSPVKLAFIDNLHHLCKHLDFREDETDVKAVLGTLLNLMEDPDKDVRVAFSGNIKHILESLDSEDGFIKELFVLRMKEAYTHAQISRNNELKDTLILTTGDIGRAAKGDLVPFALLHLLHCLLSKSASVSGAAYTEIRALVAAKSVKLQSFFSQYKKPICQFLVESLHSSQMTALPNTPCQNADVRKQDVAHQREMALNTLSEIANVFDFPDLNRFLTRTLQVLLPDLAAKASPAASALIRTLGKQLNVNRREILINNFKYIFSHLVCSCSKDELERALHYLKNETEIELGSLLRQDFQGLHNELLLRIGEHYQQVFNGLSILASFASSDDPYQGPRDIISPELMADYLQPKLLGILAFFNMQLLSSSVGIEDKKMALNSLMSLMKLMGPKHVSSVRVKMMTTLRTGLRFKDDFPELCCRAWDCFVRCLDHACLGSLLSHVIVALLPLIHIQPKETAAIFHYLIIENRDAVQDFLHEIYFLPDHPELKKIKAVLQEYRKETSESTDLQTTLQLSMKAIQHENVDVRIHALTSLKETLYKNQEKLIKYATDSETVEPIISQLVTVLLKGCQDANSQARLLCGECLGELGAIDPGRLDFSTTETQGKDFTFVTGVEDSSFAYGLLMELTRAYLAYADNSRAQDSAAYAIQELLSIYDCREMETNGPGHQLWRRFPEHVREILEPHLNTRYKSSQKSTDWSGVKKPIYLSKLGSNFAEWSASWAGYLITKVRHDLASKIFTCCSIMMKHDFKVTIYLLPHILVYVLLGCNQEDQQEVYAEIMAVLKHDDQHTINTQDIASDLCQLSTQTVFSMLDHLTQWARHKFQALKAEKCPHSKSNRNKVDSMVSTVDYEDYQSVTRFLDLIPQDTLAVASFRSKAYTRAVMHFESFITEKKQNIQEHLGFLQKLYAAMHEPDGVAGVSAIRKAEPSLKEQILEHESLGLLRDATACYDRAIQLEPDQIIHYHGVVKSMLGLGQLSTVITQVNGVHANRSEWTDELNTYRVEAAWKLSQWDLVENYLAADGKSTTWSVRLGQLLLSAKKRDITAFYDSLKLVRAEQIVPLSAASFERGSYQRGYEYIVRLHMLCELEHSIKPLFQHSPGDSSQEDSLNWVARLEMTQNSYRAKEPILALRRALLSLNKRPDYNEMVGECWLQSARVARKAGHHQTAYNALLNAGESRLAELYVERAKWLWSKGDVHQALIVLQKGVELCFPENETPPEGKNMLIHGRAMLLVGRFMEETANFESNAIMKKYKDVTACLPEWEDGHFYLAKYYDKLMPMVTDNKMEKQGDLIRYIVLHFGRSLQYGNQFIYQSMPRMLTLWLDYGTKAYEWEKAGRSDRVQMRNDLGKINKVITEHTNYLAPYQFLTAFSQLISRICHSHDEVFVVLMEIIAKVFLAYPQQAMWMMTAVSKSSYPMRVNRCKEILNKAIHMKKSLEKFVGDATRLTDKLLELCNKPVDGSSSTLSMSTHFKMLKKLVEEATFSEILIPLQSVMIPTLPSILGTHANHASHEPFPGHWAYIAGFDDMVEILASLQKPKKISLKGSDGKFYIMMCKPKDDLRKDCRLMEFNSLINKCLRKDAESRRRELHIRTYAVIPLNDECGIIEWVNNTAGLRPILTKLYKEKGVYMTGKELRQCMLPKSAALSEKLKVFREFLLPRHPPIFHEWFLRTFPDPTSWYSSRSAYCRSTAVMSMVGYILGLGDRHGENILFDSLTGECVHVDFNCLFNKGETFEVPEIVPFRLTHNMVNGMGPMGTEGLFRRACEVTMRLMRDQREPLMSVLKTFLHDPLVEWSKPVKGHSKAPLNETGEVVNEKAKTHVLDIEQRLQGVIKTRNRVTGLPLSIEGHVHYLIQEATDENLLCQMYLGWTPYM
Nature of the assay: ATR Inhibition Assay (radioactive-phosphate incorporation). It is filed as biochemical. To be noted: Ki(app); 5 nM full-length ATR, 10 μM ATP, 800 μM target peptide, 25° C. In short, it runs like this:
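Buffer was 50 mM Tris/HCl pH 7.5, 10 mM MgCl2, 1 mM DTT, with 5 nM enzyme, 10 μM [γ-33P]ATP and 800 μM target peptide at 25 °C. Compound was pre-incubated 10 min before ATP start, and the reaction was stopped after 24 h. Phosphocellulose filter capture; Ki(app) came from non-linear regression of background-corrected initial rates.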

T1 sequence (Q13535 whole entry): as above
T1 sequence (Q8WXE1 whole entry partner): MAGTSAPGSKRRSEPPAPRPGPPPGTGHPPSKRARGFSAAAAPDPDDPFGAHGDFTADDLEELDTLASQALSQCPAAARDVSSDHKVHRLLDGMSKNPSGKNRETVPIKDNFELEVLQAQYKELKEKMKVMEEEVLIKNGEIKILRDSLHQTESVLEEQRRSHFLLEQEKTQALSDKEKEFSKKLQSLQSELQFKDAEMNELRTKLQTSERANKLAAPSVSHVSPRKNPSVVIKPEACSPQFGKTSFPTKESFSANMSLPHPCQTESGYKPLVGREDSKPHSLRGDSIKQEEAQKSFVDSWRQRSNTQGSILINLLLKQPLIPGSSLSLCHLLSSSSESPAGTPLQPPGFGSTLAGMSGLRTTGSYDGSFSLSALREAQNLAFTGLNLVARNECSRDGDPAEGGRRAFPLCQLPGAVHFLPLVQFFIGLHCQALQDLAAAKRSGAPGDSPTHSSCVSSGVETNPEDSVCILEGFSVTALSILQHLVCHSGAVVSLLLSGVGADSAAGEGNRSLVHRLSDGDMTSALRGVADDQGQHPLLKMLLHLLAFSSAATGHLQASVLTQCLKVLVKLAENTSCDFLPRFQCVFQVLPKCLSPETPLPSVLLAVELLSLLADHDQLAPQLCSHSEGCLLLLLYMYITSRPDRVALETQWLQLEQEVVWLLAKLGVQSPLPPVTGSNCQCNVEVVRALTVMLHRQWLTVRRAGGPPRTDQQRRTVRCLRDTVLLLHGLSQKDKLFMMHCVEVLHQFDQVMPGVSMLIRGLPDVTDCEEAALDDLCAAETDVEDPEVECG

At intracellular ATR, `CCS(=O)(=O)N1CCN(c2cnc(N)c(-c3nc4ccccc4[nH]3)n2)CC1` [Compound I-16, 3-(1H-benzo[d]imidazol-2-yl)-5-(4-(ethylsulfonyl)piperazin-1-yl)pyrazin-2-amine] showed a pIC50 of 4.52 to 5.00. Besides, on full-length ATR, the negative-log Ki (pKi) was 6.00 to 7.00. As for `CCS(=O)(=O)N1CC=C(c2cnc(N)c(-c3nc4cccnc4[nH]3)n2)CC1` [Compound I-27, 5-(1-(ethylsulfonyl)-1,2,3,6-tetrahydropyridin-4-yl)-3-(3H-imidazo[4,5-b]pyridin-2-yl)pyrazin-2-amine], at intracellular ATR, the pIC50 was > 6.00. The pKi at full-length ATR was > 7.00. For `CN(C)S(=O)(=O)N1CC=C(c2cnc(N)c(-c3nc4cccnc4[nH]3)n2)CC1` [Compound I-26, 4-(5-amino-6-(3H-imidazo[4,5-b]pyridin-2-yl)pyrazin-2-yl)-N,N-dimethyl-5,6-dihydropyridine-1(2H)-sulfonamide] the same measures were 5.30 to 6.00 and > 7.00. For `CCS(=O)(=O)N1CC=C(c2cnc(N)c(-c3nnc(-c4ccccc4)o3)n2)CC1` [Compound I-28, 5-(1-(ethylsulfonyl)-1,2,3,6-tetrahydropyridin-4-yl)-3-(5-phenyl-1,3,4-oxadiazol-2-yl)pyrazin-2-amine] the same measures were 5.00 to 5.30 and > 7.00. With `Cc1ccc2nc(-c3nc(-n4ccc(=O)cc4)cnc3N)[nH]c2c1` [Compound I-24, 1-(5-amino-6-(6-methyl-1H-benzo[d]imidazol-2-yl)pyrazin-2-yl)pyridin-4(1H)-one], at intracellular ATR, the pIC50 is 5.30 to 6.00. Besides, the pKi on full-length ATR is > 7.00.

As to `CNCc1ccc(-c2nnc(-c3nc(N4CC[C@H](CNC(C)=O)C4)cnc3N)o2)cc1` [Compound I-317, N-[[(3R)-1-[5-Amino-6-[5-[4-(methylaminomethyl)phenyl]-1,3,4-oxadiazol-2-yl]pyrazin-2-yl]pyrrolidin-3-yl]methyl]acetamide], the pKi at full-length ATR is > 7.00. On to `Cc1ccc2nc(-c3nc(N4CCN(C(=O)c5ccco5)CC4)cnc3N)[nH]c2c1` [Compound I-53, (4-(5-amino-6-(6-methyl-1H-benzo[d]imidazol-2-yl)pyrazin-2-yl)piperazin-1-yl)(furan-2-yl)methanone], for which, on full-length ATR, the negative-log Ki (pKi) is 6.00 to 7.00. As to `CC(=O)N1CCN(c2cnc(N)c(-c3nc4ccc(C)cc4[nH]3)n2)CC1` [Compound I-10, 1-(4-(5-amino-6-(6-methyl-1H-benzo[d]imidazol-2-yl)pyrazin-2-yl)piperazin-1-yl)ethanone], the negative-log Ki (pKi) on full-length ATR is 6.00 to 7.00. On to `COCCOCC(=O)N1CCN(c2cnc(N)c(C(=O)Nc3ccccn3)n2)CC1` [Compound I-151, 3-amino-6-(4-(2-(2-methoxyethoxy)ethanoyl)piperazin-1-yl)-N-(pyridin-2-yl)pyrazine-2-carboxamide], for which, at full-length ATR, the negative logarithm of the Ki (pKi) was 5.00 to 6.00. On the same count and under the same terms, the figure for `CC(C)C(=O)N1CC=C(c2cnc(N)c(-c3nc4cccnc4[nH]3)n2)CC1` [Compound I-67, 1-(4-(5-amino-6-(3H-imidazo[4,5-b]pyridin-2-yl)pyrazin-2-yl)-5,6-dihydropyridin-1(2H)-yl)-2-methylpropan-1-one] is > 7.00.

Values taken from patent publication US8410112B2, “Compounds useful as inhibitors of ATR kinase” (Vertex Pharmaceuticals Incorporated, priority 2008, dated 2013).
